For 27 compounds, EC50 results are on record in patent publication US11180483B2, “Substituted reverse pyrimidine Bmi-1 inhibitors” (PTC Therapeutics, Inc., priority 2012, dated 2021).

As a reminder, the EC50 is the concentration that produces a half-maximal response. The low end stands for an effect from little substance, the high end for a need for much substance.

The test relates to Bmi-1. Put plainly: Sandwich ELISA Assay (Bmi-1 ELISA) in HT-1080 cells. It is filed as cell-based. The procedure:
Cell Seeding and Compound Treatment (Day 1):
HT-1080 cells were seeded at 8000 cells/well (50 μL) in 96-well tissue culture plates. After the cells became adherent (3-4 hours), 2× diluted stocks of test compounds in 50 μL DMEM containing 1% DMSO (final DMSO concentration was 0.5%) were added and the plates were incubated at 37° C. under 5% CO2 for 40-48 hours.
ELISA Plate First Antibody Preparation (Day 2):
The First Antibody (Millipore Mouse, monoclonal to mouse Bmi-1, clone F6, catalog #05-637) diluted to 2 μg/mL in PBS was added (100 μL) to each well of a Nunc MaxiSorp 96-well ELISA plate. The plate was covered with a plate seal and allowed to stand overnight.
Cell Lysate Preparation (Day 3):
Fresh 1× Lysis buffer was prepared on the day of the assay as follows: 1 mM EDTA, 150 mM NaCl, 0.5% Triton-X 100, 10 mM NaF, 20 mM B-Glycerophosphate, 1 mM DTT (in PBS, pH 7.2-7.4) and 1× HALT protease inhibitor cocktail (Pierce #78410).
The 1× Lysis Buffer (40 μL) was added to each well and the plate was shaken for 5-10 minutes on an orbital shaker to allow cell lysis, then diluent (1% BSA in PBS in 0.5% NP40) (100 μL) was added to each well.
A standard curve was prepared at the following Bmi-1 concentrations: 8000, 4000, 2000, 1000, 500, 250, 125, 0 pg/mL The Bmi-1 Recombinant Protein Standard (Novus Biologicals PCGF4 Recombinant Protein (P01), catalog #H00000648-P01) used to prepare the standard curve was stored at −80° C. On first thaw, the Bmi-1 Recombinant Protein Standard was diluted to […] in Blocking Buffer (1% BSA in PBS; BSA: Fisher Scientific Catalog #1600-100). Aliquots were taken and refrozen at −80° C. The aliquots may be kept at 4° C. and reused after first thaw, but only within 1-2 weeks. The Bmi-1 Recombinant Protein Standard contains a GST-fusion tag that appears around 70 Kda on Western Blot.
The prepared ELISA plate was washed 3× with Wash Buffer (0.05% Tween-20 in PBS). The final wash was removed from the plate and the plate was blotted dry. Blocking Buffer (300 μL) (1% BSA in PBS) was added to each well. The plate was covered with a plate seal and incubated at room temperature for 1 hour. The blocked plate was washed 3× with Wash Buffer, then the final wash was removed and the plate was blotted dry. The previously prepared samples and standards were added (100 μL/well) and the plate was covered with a plate seal and incubated at 4° C. overnight.
The prepared ELISA plate was removed from 4° C., incubated at room temperature for 30 minutes, then washed and blotted dry as previously described for Day 3. The Second Antibody (Cell Signaling Rabbit anti-Bmi-1, Cat #2830) diluted to 1:600 in Blocking Buffer was added (100 μL) to each well, except as needed for background control wells. The plate was covered with a plate seal and incubated for 1.5 hrs at room temperature.
The ELISA plate was washed and blotted dry as previously described. The Third Antibody (Cell Signaling HRP conjugated anti-rabbit IgG (CellSignaling, Cat #:7074) diluted to 1:300 in Blocking Buffer was added (100 μL) to each well, except as needed for background control wells. The plate was incubated for 1 hr at room temperature.
The plate was washed and blotted dry as previously described, then prepared TMB substrate (TMB substrate kit, Pierce catalog #34021) (prepared by mixing kit reagents 1:1) (100 μL) was added per well. The plate was incubated for 20-30 minutes at room temperature in the dark, then Stop Solution (2 M sulfuric acid in water) (50 μL) was added per well. The plates were read at OD450 (experimental) and OD570 (reference).
Background: In an ELISA, binding on a coated surface is turned into a signal by an enzyme label.
Take `COc1ccc(Nc2ccnc(-c3c(C(F)(F)F)nc4ccccn34)n2)cn1` [Cpd 30, N-(6-methoxypyridin-3-yl)-2-[2-(trifluoromethyl)imidazo[1,2-a]pyridin-3-yl]pyrimidin-4-amine]: the EC50 lay in the range of 100 to 3000 nM.

`CN(C)c1ccc(Nc2ccnc(-c3c(C(F)(F)F)nc4ccccn34)n2)cn1` [Cpd 31, N^2,N^2-dimethyl-N^5-{2-[2-(trifluoromethyl)imidazo[1,2-a]pyridin-3-yl]pyrimidin-4-yl]pyridine-2,5-diamine] came in with an EC50 of 10 to 100 nM.

As for `FC(F)(F)c1ccc(Nc2ccnc(-c3c(C(F)(F)F)nc4ccc(Br)cn34)n2)cc1` [Cpd 32, 2-[6-bromo-2-(trifluoromethyl)imidazo[1,2-a]pyridin-3-yl]-N-[4-(trifluoromethyl)phenyl]pyrimidin-4-amine], the EC50 was 100 to 3000 nM. The value for `COc1ccc(Nc2ccnc(-c3c(C(F)(F)F)nc4ccc(Br)cn34)n2)cc1` [Cpd 33, 2-[6-bromo-2-(trifluoromethyl)imidazo[1,2-a]pyridin-3-yl]-N-(4-methoxyphenyl)pyrimidin-4-amine] was 10 to 100 nM. The value for `COc1ccc(Nc2ccnc(-c3c(C(F)(F)F)nc4ccccn34)n2)cc1F` [Cpd 34, N-(3-fluoro-4-methoxyphenyl)-2-[2-(trifluoromethyl)imidazo[1,2-a]pyridin-3-yl]pyrimidin-4-amine] was 1 to 10 nM; that for `COc1ccc(Nc2ccnc(-c3c(C(F)(F)F)nc4ccccn34)n2)cc1Cl` [Cpd 35, N-(3-chloro-4-methoxyphenyl)-2-[2-(trifluoromethyl)imidazo[1,2-a]pyridin-3-yl]pyrimidin-4-amine] was 100 to 3000 nM; that for `Cc1ccc(Nc2ccnc(-c3c(C(F)(F)F)nc4ccccn34)n2)cc1Cl` [Cpd 36, N-(3-chloro-4-methylphenyl)-2-[2-(trifluoromethyl)imidazo[1,2-a]pyridin-3-yl]pyrimidin-4-amine] was 10 to 100 nM. For the compound `CCOc1ccc(Nc2ccnc(-c3c(C(F)(F)F)nc4ccccn34)n2)cc1` [Cpd 37, N-(4-ethoxyphenyl)-2-[2-(trifluoromethyl)imidazo[1,2-a]pyridin-3-yl]pyrimidin-4-amine], the half-maximal effective concentration (EC50) fell in the range of 10 to 100 nM. Regarding `CC(C)c1ccc(Nc2ccnc(-c3c(C(F)(F)F)nc4ccccn34)n2)cc1` [Cpd 38, N-[4-(propan-2-yl)phenyl]-2-[2-(trifluoromethyl)imidazo[1,2-a]pyridin-3-yl]pyrimidin-4-amine], the EC50 is 100 to 3000 nM. The value for `FC(F)(F)c1nc2ccccn2c1-c1nccc(Nc2ccc(-n3cccn3)cc2)n1` [Cpd 39, N-[4-(1H-pyrazol-1-yl)phenyl]-2-[2-(trifluoromethyl)imidazo[1,2-a]pyridin-3-yl]pyrimidin-4-amine] was 100 to 3000 nM. To `COc1ccc(Nc2ccnc(-n3c(C)nc4ccccc43)n2)cc1Cl` [Cpd 40, N-(3-chloro-4-methoxyphenyl)-2-(2-methyl-1H-benzimidazol-1-yl)pyrimidin-4-amine] belongs 100 to 3000 nM. The value for `Cc1nc2ccccc2n1-c1nccc(Nc2ccc(C(F)(F)F)cc2)n1` [Cpd 41, 2-(2-methyl-1H-benzimidazol-1-yl)-N-[4-(trifluoromethyl)phenyl]pyrimidin-4-amine] was 100 to 3000 nM; that for `COc1ccc(Nc2ccnc(-n3c(C(F)(F)F)nc4ccccc43)n2)cc1Cl` [Cpd 42, N-(3-chloro-4-methoxyphenyl)-2-[2-(trifluoromethyl)-1H-benzimidazol-1-yl]pyrimidin-4-amine] was 10 to 100 nM; that for `Cc1ccc(Nc2nc(-c3c(C(F)(F)F)nc4ccccn34)ncc2F)cc1` [Cpd 43, 5-fluoro-N-(4-methylphenyl)-2-[2-(trifluoromethyl)imidazo[1,2-a]pyridin-3-yl]pyrimidin-4-amine] was 10 to 100 nM. `Cc1ccc(Nc2nc(-c3c(C(F)(F)F)nc4ccccn34)ncc2Cl)cc1` [Cpd 44, 5-chloro-N-(4-methylphenyl)-2-[2-(trifluoromethyl)imidazo[1,2-a]pyridin-3-yl]pyrimidin-4-amine] gave an EC50 of 100 to 3000 nM. The value for `COc1ccc(Nc2ccnc(-c3c(C(F)(F)F)nc4cnccn34)n2)cc1` [Cpd 45, N-(4-methoxyphenyl)-2-[2-(trifluoromethyl)imidazo[1,2-a]pyrazin-3-yl]pyrimidin-4-amine] was 100 to 3000 nM; that for `FC(F)(F)c1ccc(Nc2ccnc(-c3c(C(F)(F)F)nc4cnccn34)n2)cc1` [Cpd 46, 2-[2-(trifluoromethyl)imidazo[1,2-a]pyrazin-3-yl]-N-[4-(trifluoromethyl)phenyl]pyrimidin-4-amine] was 100 to 3000 nM. For `FC(F)(F)c1nc2cnccn2c1-c1nccc(Nc2ccc(Cl)cc2)n1` [Cpd 47, N-(4-chlorophenyl)-2-[2-(trifluoromethyl)imidazo[1,2-a]pyrazin-3-yl]pyrimidin-4-amine], the EC50 is 100 to 3000 nM. The value for `COc1ccc2nc(C(F)(F)F)c(-c3nccc(Nc4ccc(C(F)(F)F)cc4)n3)n2c1` [Cpd 48, 2-[6-methoxy-2-(trifluoromethyl)imidazo[1,2-a]pyridin-3-yl]-N-[4-(trifluoromethyl)phenyl]pyrimidin-4-amine] was 100 to 3000 nM; that for `COc1ccc2nc(C(F)(F)F)c(-c3nccc(Nc4ccc(OC(F)(F)F)cc4)n3)n2c1` [Cpd 49, 2-[6-methoxy-2-(trifluoromethyl)imidazo[1,2-a]pyridin-3-yl]-N-[4-(trifluoromethoxy)phenyl]pyrimidin-4-amine] was 100 to 3000 nM. To `COc1ccc(Nc2ccnc(-c3c(C(F)(F)F)nc4ccc(OC)cn34)n2)cc1` [Cpd 50, N-(4-methoxyphenyl)-2-[6-methoxy-2-(trifluoromethyl)imidazo[1,2-a]pyridin-3-yl]pyrimidin-4-amine] belongs 10 to 100 nM; to `COc1ccc2nc(C(F)(F)F)c(-c3nccc(Nc4ccc(OC(F)F)cc4)n3)n2c1` [Cpd 51, N-[4-(difluoromethoxy)phenyl]-2-[6-methoxy-2-(trifluoromethyl)imidazo[1,2-a]pyridin-3-yl]pyrimidin-4-amine], 100 to 3000 nM. The value for `Cc1nc2ccccc2n1-c1nc(NCCO)cc(Nc2ccc(OC(F)F)cc2)n1` [Cpd 52, 2-{[6-{[4-(difluoromethoxy)phenyl]amino}-2-(2-methyl-1H-benzimidazol-1-yl)pyrimidin-4-yl]amino}ethanol] was 100 to 3000 nM; that for `FC(F)Oc1ccc(Nc2ccnc(-c3c(C(F)(F)F)nc4cnccn34)n2)cc1` [Cpd 53, N-[4-(difluoromethoxy)phenyl]-2-[2-(trifluoromethyl)imidazo[1,2-a]pyrazin-3-yl]pyrimidin-4-amine] was 100 to 3000 nM; that for `Fc1ccc2nc(C(F)(F)F)c(-c3nccc(Nc4ccc(C(F)(F)F)cc4)n3)n2c1` [Cpd 54, 2-[6-fluoro-2-(trifluoromethyl)imidazo[1,2-a]pyridin-3-yl]-N-[4-(trifluoromethyl)phenyl]pyrimidin-4-amine] was 100 to 3000 nM. Take `Fc1ccc2nc(C(F)(F)F)c(-c3nccc(Nc4ccc(OC(F)F)cc4)n3)n2c1` [Cpd 55, N-[4-(difluoromethoxy)phenyl]-2-[6-fluoro-2-(trifluoromethyl)imidazo[1,2-a]pyridin-3-yl]pyrimidin-4-amine]: the concentration for a half-maximal effect (EC50) was in the range of 100 to 3000 nM. With `FC(F)(F)c1ccc(Nc2ccnc(-c3c(C(F)(F)F)nn4ccccc34)n2)cc1` [Cpd 56, N-[4-(trifluoromethyl)phenyl]-2-[2-(trifluoromethyl)pyrazolo[1,5-a]pyridin-3-yl]pyrimidin-4-amine], the EC50 was 100 to 3000 nM.
